In ChEMBL document CHEMBL1201862, “PubChem BioAssay data set” (2004):
The source made the active and inactive calls.

Assays:
HEK293 [1] = assay: cells; assay type: functional, cell-based; settings: Homo sapiens
HEK293 [2] = assay: cells; assay type: functional, cell-based; settings: Homo sapiens; remark: listed apart in the source
Galanin receptor type 3 = Galanin receptor type 3 (Homo sapiens, UniProt O60755); assay: Fluorescence-based cell-based primary high throughput dose response assay to identify antagonists of the Galanin Receptor 3 (GalR3).; assay type: functional
[3] = target: T1, Nucleotide-binding oligomerization domain-containing protein 1 (Homo sapiens, UniProt Q9Y239); assay: NOD1 signaling inhibitors, SAR follow-up, revised (AID 2333); assay type: functional
T1 sequence (Q9Y239 whole entry): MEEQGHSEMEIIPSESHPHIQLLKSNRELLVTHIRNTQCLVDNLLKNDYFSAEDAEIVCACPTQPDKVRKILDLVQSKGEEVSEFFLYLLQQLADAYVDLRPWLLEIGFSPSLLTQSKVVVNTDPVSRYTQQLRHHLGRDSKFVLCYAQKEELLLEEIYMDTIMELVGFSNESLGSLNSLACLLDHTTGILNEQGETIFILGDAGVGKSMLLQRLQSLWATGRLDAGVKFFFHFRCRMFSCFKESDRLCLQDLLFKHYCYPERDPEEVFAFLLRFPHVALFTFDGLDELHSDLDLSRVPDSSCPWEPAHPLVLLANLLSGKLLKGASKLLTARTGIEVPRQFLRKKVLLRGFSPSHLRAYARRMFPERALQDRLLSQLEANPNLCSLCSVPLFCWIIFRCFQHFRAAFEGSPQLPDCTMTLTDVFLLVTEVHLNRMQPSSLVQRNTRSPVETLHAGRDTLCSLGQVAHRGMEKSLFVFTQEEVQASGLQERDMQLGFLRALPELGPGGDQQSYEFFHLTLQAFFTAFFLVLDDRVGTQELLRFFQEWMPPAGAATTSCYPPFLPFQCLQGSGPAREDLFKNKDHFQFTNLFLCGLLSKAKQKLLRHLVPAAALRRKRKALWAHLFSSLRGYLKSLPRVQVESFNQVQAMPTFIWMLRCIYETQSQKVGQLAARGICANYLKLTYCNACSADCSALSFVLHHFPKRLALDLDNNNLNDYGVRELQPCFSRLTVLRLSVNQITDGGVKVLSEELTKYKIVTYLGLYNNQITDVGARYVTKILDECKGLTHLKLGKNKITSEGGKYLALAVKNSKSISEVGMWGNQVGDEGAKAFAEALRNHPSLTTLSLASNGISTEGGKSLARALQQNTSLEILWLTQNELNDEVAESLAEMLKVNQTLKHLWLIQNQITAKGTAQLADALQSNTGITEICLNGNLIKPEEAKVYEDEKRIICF

Tumor necrosis factor = Tumor necrosis factor (Homo sapiens, UniProt P01375); assay: TNFa-triggered NF-kB activation inhibitors, SAR follow-up, cell-based, revised (AID 2337); assay type: functional
HEK293 [4] = assay: cells; settings: Homo sapiens
HEK293 [5] = assay: NOD1 signaling inhibitors, primary screen, cell-based, luminescence, uHTS (AID 1578); assay type: functional; settings: Homo sapiens
INS1 = assay: beta cell apoptosis inhibitors, cytokine rescue, dose response, luminescence, retest (AID 449756); assay type: functional, cell-based; settings: Rattus norvegicus;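 further: cell death triggered by IL-1 beta plus TNF-alpha plus IFN-gamma mixture; protective hits raise ATP signal compared with cytokine alone wells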
cells = assay type: functional, cell-based; settings: HEK-CNG
HEK293 [6] = assay: NOD2 signaling inhibitors in MDP-stimulated cells, cell-based, uHTS, luminescence (AID 2001); assay type: functional; settings: Homo sapiens
[7] = target: T2, COUP transcription factor 2 (Homo sapiens, UniProt P24468); assay: Luminescence-based cell-based high throughput dose response assay to identify inhibitors of COUP-TFII (NR2F2).; assay type: functional;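 further: HEK293 cells transiently cotransfected with COUP-TFII expression vector and reporter; luciferase reporter luminescence driven by COUP-TFII from the pX2-168 reporter plasmid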
T2 sequence (P24468 whole entry): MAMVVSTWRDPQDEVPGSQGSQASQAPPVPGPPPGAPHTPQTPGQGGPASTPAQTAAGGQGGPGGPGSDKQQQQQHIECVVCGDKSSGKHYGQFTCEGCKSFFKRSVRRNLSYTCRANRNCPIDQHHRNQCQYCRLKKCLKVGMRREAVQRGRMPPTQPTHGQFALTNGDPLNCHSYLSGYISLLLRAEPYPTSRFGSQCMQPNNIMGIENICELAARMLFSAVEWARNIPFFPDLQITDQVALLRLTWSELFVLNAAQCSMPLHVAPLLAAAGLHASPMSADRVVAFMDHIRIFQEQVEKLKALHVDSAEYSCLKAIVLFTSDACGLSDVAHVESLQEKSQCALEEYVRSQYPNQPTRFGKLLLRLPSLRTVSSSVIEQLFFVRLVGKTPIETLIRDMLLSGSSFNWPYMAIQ

[8] = cytotoxicity in OVCAR8 ovarian cancer cells, dose response, PAX8 project, cell-based, plate reader, dry powder samples (AID 743197); assay type: functional; settings: OVCAR-8
[9] = IGROV1 ovarian cancer cell cytotoxicity, dose response, PAX8 inhibitor project, plate reader, dry powder samples (AID 743043); assay type: functional, cell-based; settings: IGROV-1
Paired box protein Pax-8 = Paired box protein Pax-8 (Homo sapiens, UniProt Q06710); assay: inhibitors of PAX8-driven TPO luciferase reporter, dose response, RMG-I cells, cherry-pick (AID 687027); assay type: functional, cell-based;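 further: luciferase reporter driven by Pax8 target thyroperoxidase promoter measured by SteadyGlo luminescence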
[10] = NIH:OVCAR-3 ovarian cancer cell cytotoxicity, dose response, PAX8 inhibitor project, plate reader, dry powder samples (AID 743044); assay type: functional, cell-based
[11] = HepG2 cell cytotoxicity, dose response, cytotoxicity control, cherry-picked samples (AID 1159577); assay type: functional, cell-based
[12] = non-specific cell cytotoxicity, dose response, cytotoxicity control for PAX8 inhibitor project, plate reader, dry powder samples (AID 743021); assay type: functional, cell-based
[13] = P. falciparum Dd2 growth inhibitors, dose response, SYBR Green, cherry-picked samples (AID 1159567); assay type: functional, cell-based
[14] = LGR2 antagonists, dose response, cell-based, HEK293, CRE-luciferase reporter, cherry pick, set 2 (AID 743343); assay type: functional;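 further: transfected cells were stimulated with diluted bursicon conditioned medium after compound addition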
[15] = HEK293 cell cytotoxicity, dose response, cytotoxicity control, plate reader, cherry-picked samples (AID 743446); assay type: functional, cell-based
[16] = HepG2 cell cytotoxicity, dose response, cytotoxicity control, plate reader, cherry-pick, antagonist series (AID 743416); assay type: functional, cell-based
[17] = A549 cell cytotoxicity, dose response, cytotoxicity control, plate reader, cherry-pick, antagonist series (AID 743412); assay type: functional, cell-based
[18] = MC4R antagonists, dose response, counter-screen for LGR2 antagonist project, cell-based, plate reader, cherry pick (AID 743444); assay type: functional;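 further: transfected HEK 293 cells stimulated with alpha-MSH peptide; potency of inhibitors of the alpha-MSH evoked signal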

Sequence of Paired box protein Pax-8 (Q06710 whole entry): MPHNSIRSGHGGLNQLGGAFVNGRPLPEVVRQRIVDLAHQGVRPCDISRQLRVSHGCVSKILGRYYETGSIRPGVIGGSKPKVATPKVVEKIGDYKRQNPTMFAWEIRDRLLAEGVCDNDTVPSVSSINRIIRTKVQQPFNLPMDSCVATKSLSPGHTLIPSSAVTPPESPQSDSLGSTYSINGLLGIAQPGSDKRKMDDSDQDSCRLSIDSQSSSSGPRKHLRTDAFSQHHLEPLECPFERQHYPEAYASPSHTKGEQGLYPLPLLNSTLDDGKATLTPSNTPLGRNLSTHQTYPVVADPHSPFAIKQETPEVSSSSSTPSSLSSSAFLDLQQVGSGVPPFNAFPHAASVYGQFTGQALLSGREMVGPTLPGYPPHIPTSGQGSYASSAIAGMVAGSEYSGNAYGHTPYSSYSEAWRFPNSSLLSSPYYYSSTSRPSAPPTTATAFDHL
Sequence of Tumor necrosis factor (P01375 whole entry): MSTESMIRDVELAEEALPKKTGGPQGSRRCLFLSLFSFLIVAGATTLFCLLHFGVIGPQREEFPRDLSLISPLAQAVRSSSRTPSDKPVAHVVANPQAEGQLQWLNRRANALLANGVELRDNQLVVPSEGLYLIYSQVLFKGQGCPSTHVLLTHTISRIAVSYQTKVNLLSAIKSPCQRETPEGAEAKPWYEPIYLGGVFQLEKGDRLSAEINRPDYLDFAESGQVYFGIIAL
Sequence of Galanin receptor type 3 (O60755 whole entry, the tested form may be a part): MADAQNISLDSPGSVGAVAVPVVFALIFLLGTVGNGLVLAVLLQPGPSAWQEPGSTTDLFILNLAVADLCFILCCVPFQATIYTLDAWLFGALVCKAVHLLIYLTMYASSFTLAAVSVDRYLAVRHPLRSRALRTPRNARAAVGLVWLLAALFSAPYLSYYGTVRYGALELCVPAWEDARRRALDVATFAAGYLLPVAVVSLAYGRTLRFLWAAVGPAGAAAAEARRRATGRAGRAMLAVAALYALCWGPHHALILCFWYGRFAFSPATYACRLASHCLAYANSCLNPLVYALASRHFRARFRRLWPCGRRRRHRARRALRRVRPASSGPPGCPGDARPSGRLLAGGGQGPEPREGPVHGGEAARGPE

With `C=CCC1(CC=C)CCCN1C(=O)c1cc(COc2ccc(C)nc2)on1` as the compound, how does the IC50 (HEK293 [1]) read?
The IC50 was 14.1 µM (active).

And the IC50 (HEK293 [2])?
The IC50 was 4.44 µM (active).

What about the IC50 (Galanin receptor type 3) of the same compound?
The IC50 was 1.25 µM (active).

What about the IC50 [3] of the same compound?
Its IC50 is 2.67 µM (active).

What about the IC50 (Tumor necrosis factor) of the same compound?
Its IC50 is 4.24 µM (active).

What about the IC50 (HEK293 [4]) of the same compound?
The IC50 was 19 µM (active).

And the EC50 (HEK293 [5])?
Its EC50 is 2.7 µM (active).

And the AC50 (INS1)?
Its AC50 is 2.13 µM (active).

What about the EC50 (cells) of the same compound?
Its EC50 is > 29.9 µM (inactive).

What about the IC50 (HEK293 [6]) of the same compound?
Its IC50 is 7.3 µM (active).

And the IC50 [7]?
The IC50 was 11.8 µM (inactive).

What does the source list for `COc1ccc(S(=O)(=O)Nc2ccc3c(c2)C(=O)N([C@@H](C)CO)C[C@H](C)[C@@H](CN(C)C(=O)Nc2ccc(C(F)(F)F)cc2)OCCCC[C@@H](C)O3)cc1`?
AC50 [8]: 29.6 µM (active); AC50 [9]: 41.5 µM (active); AC50 (Paired box protein Pax-8): 9.96 µM (active); AC50 [10]: 20.5 µM (active)

For `O=C1CN(S(=O)(=O)Cc2ccccc2)C[C@@H]2[C@@H](c3ccc(C#Cc4ccc(F)cc4)cc3)[C@@H](CO)N12`, which AC50 [8] is on record?
Its AC50 is 35.9 µM (active).

What about the AC50 [11] of the same compound?
The AC50 was 9.1 µM (active).

What about the AC50 [12] of the same compound?
The AC50 was 18.5 µM (active).

And the AC50 [9]?
Its AC50 is 17.4 µM (active).

What about the AC50 (Paired box protein Pax-8) of the same compound?
Its AC50 is 4.64 µM (active).

And the AC50 [13]?
The AC50 was 5.57 µM (active).

For `COc1ccc(S(=O)(=O)Nc2ccc3c(c2)CC(=O)N([C@@H](C)CO)C[C@H](C)[C@@H](CN(C)Cc2ccc(Cl)c(Cl)c2)O3)cc1`, which AC50 [14] is on record?
Its AC50 is 20.5 µM (active).

What about the AC50 [15] of the same compound?
Its AC50 is 15.7 µM (active).

What about the AC50 [16] of the same compound?
Its AC50 is 14.3 µM (active).

And the AC50 [17]?
The AC50 was 12.4 µM (active).

What about the AC50 [18] of the same compound?
Its AC50 is 15.9 µM (active).
